US20140148446A1, “COMPOUNDS THAT ENABLE ALTERNATIVE MITOCHONDRIAL ELECTRON TRANSFER” (University of North Texas Health Science Center, priority 2010, published 2014)
Read-outs that look alike come from different tables or passages of the source.

Assays:
[1] = test system: HT-22 cells; test: Protection against cell death (cell viability) induced by glutamate in HT-22 cells; assay type: cell-based; conditions: Mus musculus
Protocol: HT-22 cells (gift from Dr. David Schubert, Salk Institute, San Diego, Calif.) were plated at 4,000 cells per well in 96 well plates and cultured over night. […] At the end of the 24 hours, the medium was removed and the plates were rinsed with PBS and incubated with 10 μM calcein-AM (Invitrogen, Carlsbad, Calif.) in PBS for 20 minutes. […] Cell culture wells treated with bleach before rinsing were used as blank.

[2] = test system: mitochondrial complex I-III; assay type: biochemical, rat
Protocol: (§1) Fresh rat heart was removed and placed in ice-cold mitochondrial isolation buffer containing 210 mM mannitol, 70 mM sucrose, 5 mM HEPES, and 1 mM EDTA, pH 7. The heart was homogenized immediately, and the mitochondrial fraction was isolated by differential centrifugation as described previously (Trounce et al., 1996). Mitochondria were stored at −80° C. until subsequent analysis.
All mitochondrial activity assays were performed according to previous publications with minimal modifications for complex I (Lenaz et al., 2004), complex I-III, complex II, complex III, and II-III (Trounce et al., 1996). […] Complex I activity was monitored by adding NADH to the mix with or without rotenone/antimycin A. The final data were normalized to blank values at time zero. The reaction was monitored in a kinetic spectrophotometer at 340 nm. Complex I activity was measured in arbitrary units and normalized to control levels for statistical analysis. Isolated mitochondria equivalent to 40-200 μg mitochondrial protein was used for each assay, except for assays with inhibitors, when larger amount of mitochondria (3 to 5 folds) were used to ensure that inhibition was distinguishable. Final data were normalized to control levels. For complex I-III activity, the reaction was initiated with the addition of NADH, cyt c was used as final substrate and its reduction was monitored at 550 nm. For assay of complex II-III activity, succinate was added instead of NADH, and the electron transfer to cyt c was performed according to previous publications (Atamna et al., 2008). To test whether the electrons from the reduced form of MB (MBH2) can be transferred to cyt c in mitochondrial lysate, we added 10 μM 2,7-dichlorofluorescin (DCFH, Invitrogen, Carlsbad, Calif.) to the reaction system. Free radicals convert non-fluorescent DCFH to highly fluorescent DCF (Ex, 488 nm, and Em, 530 nm). In the presence of cyt c, which accepts electrons from MBH2, conversion of DCFH to DCF is decreased.

[3] = test system: mitochondrial complex II-III; test: Mitochondrial complex II-III activity in extracted mitochondria; assay type: biochemical, rat; conditions: with and without antimycin A
Protocol: as §1
All mitochondrial activity assays were performed according to previous publications with minimal modifications for complex I (Lenaz et al., 2004), complex I-III, complex II, complex III, and II-III (Trounce et al., 1996). […] Complex I activity was monitored by adding NADH to the mix with or without rotenone/antimycin A. The final data were normalized to blank values at time zero. The reaction was monitored in a kinetic spectrophotometer at 340 nm. Complex I activity was measured in arbitrary units and normalized to control levels for statistical analysis. Isolated mitochondria equivalent to 40-200 μg mitochondrial protein was used for each assay, except for assays with inhibitors, when larger amount of mitochondria (3 to 5 folds) were used to ensure that inhibition was distinguishable. Final data were normalized to control levels. For complex I-III activity, the reaction was initiated with the addition of NADH, cyt c was used as final substrate and its reduction was monitored at 550 nm. […]

[4] = test system: rotenone induced rat model of PD; test: Rotenone model of PD: body weight, neurological and behavioral assessment; assay type: in vivo; conditions: MB 500 μg/kg/day i.p.
Protocol: The accelerating rotarod, a motor driven treadmill (Omnitech Electronics, Columbus, Ohio) measures running coordination and motor performance. The rotor consisted of a nylon cylinder with a 7 cm diameter mounted horizontally 35.5 cm above a padded surface. On a given trial, the rats were placed on the cylinder, the cylinder was rotated, and a timer switch was simultaneously activated. Acceleration continued from 0 to a maximum of 44 rpm until animals were unable to stay on top of the rotating rod and fell to the padded surface. […] When the rat landed on the surface, a photosensitive switch was tripped and the timer stopped. Rats were subjected to this test two sessions a day, three trials per session, for 7 sessions. A 20-minute resting period was given between each trial. Animals were given at least two hours break time between sessions each day. Retention times on the rotating treadmill were recorded and plotted for analysis.
Neurological assessment was performed by three evaluators blind to treatment conditions. The evaluators were initially trained until they produced consistent scores when evaluating rats in these tests. Subsequently, experimental subjects were randomized and presented to the evaluators individually. For each session, which consisted of three trials, an individual evaluator scored a rat in only one trial; thus, the final score for a session for each animal was the average score of the three evaluators. The category included: tremor; locomotion; bradykinesia; hypokinesia; posture; and gross motor skills.
Catalepsy was measured by standard bar test and grid test adapted from previous publication. For bar test, the rats were placed with both front paws grasp on a horizontal bar which was 9 cm above the surface. The time, each animal took to remove one paw from the bar was manually measured by a stopwatch. For grid test, rats were placed on a vertical wire grid (25.5 cm width and 44 cm high with a space of 1 cm between each wire) and catalepsy was determined by the length of time the animals maintained all four paws on the grid using a stopwatch. The maximum descent latency was set at 300 seconds for the bar test and 60 seconds for grid test.
For gait analysis, the fore and hind paws of each rat were painted with blue and red dye, respectively. The animals were allowed to walk across an absorbent paper covered straight alley runway (150 cm long, 20 cm wide, opaque walls 20 cm tall) into a dark compartment. Before the test, animals were put in the dark compartment for 2 minutes to habituate to the environment and 3 pre-training runs were conducted for all rats. Three trials were conducted to obtain clear footprints for each animal. Prolonged stop or turning backward in the runway was considered failed trials. The distance of individual steps were analyzed by two independent blinded observers.

[5] = test system: rotenone induced rat model of PD; test: Rotenone model of PD: striatal monoamines, brain complex I-III activity and total ROS; assay type: in vivo
Protocol: All mitochondrial activity assays were performed according to previous publications with minimal modifications for complex I (Lenaz et al., 2004), complex I-III, complex II, complex III, and II-III (Trounce et al., 1996). All assays used a similar master mix that contained potassium phosphate pH 7.4 (50 mM), BSA 2.5mg/ml, MgCl2 5 mM, KCN (2 mM), and various inhibitors or substrates, including rotenone (6 μM), antimycin A (2 μM), NADH (150 μM), CoQ1 (60 μM), cyt c (50 μM), succinate (8 mM), and DBH2 (100 μM). Complex I activity was monitored by adding NADH to the mix with or without rotenone/antimycin A. The final data were normalized to blank values at time zero. The reaction was monitored in a kinetic spectrophotometer at 340 nm. Complex I activity was measured in arbitrary units and normalized to control levels for statistical analysis. Isolated mitochondria equivalent to 40-200 μg mitochondrial protein was used for each assay, except for assays with inhibitors, when larger amount of mitochondria (3 to 5 folds) were used to ensure that inhibition was distinguishable. Final data were normalized to control levels. For complex I-III activity, the reaction was initiated with the addition of NADH, cyt c was used as final substrate and its reduction was monitored at 550 nm. For assay of complex II-III activity, succinate was added instead of NADH, and the electron transfer to cyt c was performed according to previous publications (Atamna et al., 2008). To test whether the electrons from the reduced form of MB (MBH2) can be transferred to cyt c in mitochondrial lysate, we added 10 μM 2,7-dichlorofluorescin (DCFH, Invitrogen, Carlsbad, Calif.) to the reaction system. Free radicals convert non-fluorescent DCFH to highly fluorescent DCF (Ex, 488 nm, and Em, 530 nm). In the presence of cyt c, which accepts electrons from MBH2, conversion of DCFH to DCF is decreased.
Rats were assigned to three groups: control animals received vehicle infusion and daily saline injection (Veh/Sal N=6-8); a second group received rotenone infusion at the dose of 5 mg/kg/day and daily saline injection (ROT/Saline N=8-11); and the third group received rotenone infusion (5 mg/kg/day) and MB injection at the dose of 500 μg/kg/day (ROT/MB N=8-10). Vehicle or rotenone was infused via Alzet osmotic mini pumps that were filled with vehicle or rotenone dissolved in vehicle (equal volumes of dimethylsulfoxide and polyethylene glycol). Pumps containing vehicle or rotenone were sterilized with UV irradiation and implanted subcutaneously on the back. Intraperitoneal injections were administered with normal saline or MB, 500 μg/kg/day, diluted in normal saline to 500 μl of final volume. Rats were sacrificed on day 8 at four hours after last dose of MB or saline treatment.
After completion of neurological assessments and behavioral tests, rats were killed on the 8th day of rotenone infusion under anesthesia induced by xylazine (20 mg/kg, i.p.) and ketamine (100 mg/kg, i.p.). All osmotic pumps were checked for the residual liquid to ensure proper drug delivery. One hemisphere was fixed by 4% paraformaldehyde in phosphate buffer for 48 hr until processing for sectioning. The other hemisphere was snap-frozen in liquid nitrogen, and kept at −80° C. until extraction for biochemical analysis. Striatum dissected from a separate set of animals were used for analysis of monoamines by HPLC. […]

CN(C)c1ccc2nc3ccc(=[N+](C)C)cc-3sc2c1 [methylene blue]
EC50 ([1]; HT-22, glutamate toxicity, HT22 cells, read-out: EC50 against glutamate toxicity in HT22 cells): 0.176 nM | EC50 ([1]; glutamate, HT-22 cells, read-out: Protection against cell death (EC50)): 18.8 nM | Complex I-III activity, % of the control level ([2]; 1 μg/ml MB, in the presence of antimycin A): 674±99% | Complex I-III activity, % of control ([2]; 1 μg/ml MB, in the presence of rotenone): 118.1±6.4% | Increase of complex I-III activity ([2]; increasing doses of MB (0.1-1 μg/ml)): up to nine-fold increase | Effect on complex II-III activity [3]: no significant effects | Catalepsy, bar test descent latency [4]: completely reversed | Catalepsy, grid test latency to fall [4]: attenuated | Neurological scores (randomized blinded assessment) [4]: significantly improved | Rotarod performance deficits [4]: almost completely prevented | Rotenone induced body weight loss [4]: attenuated | Stride length in gait analysis [4]: improved | Decrease of complex I-III activity in brain extracts ([5]; MB 500 μg/kg/day i.p.): prevented | Overall ROS in brain extracts ([5]; MB 500 μg/kg/day i.p.): attenuated in the ROT/MB group to basal level | Striatum L-DOPAC depletion ([5]; MB 500 μg/kg/day i.p.): almost completely rescued | Striatum dopamine depletion ([5]; MB 500 μg/kg/day i.p.): almost completely rescued | Striatum 5-HT levels ([5]; all three groups): no significant differences
